Results taken from patent US20260042731A1, “(2,4-DICHLOROPHENOXY)ACETIC ACID ANALOGS” (CORTEVA AGRISCIENCE LLC, priority 2022, published 2026).

Columns and labels:
Test in all cases: Greenhouse post-emergence mixture trials, percent visual control
Format in all cases: in vivo
[1] = test system: Common Lambsquarters (CHEAL); conditions: Chenopodium album, post-emergence, 504 h, CHEAL, 21 DAA
[2] = test system: Corn (ZEAMX); conditions: Zea mays, post-emergence, 504 h, ZEAMX, 21 DAA
[3] = test system: Velvetleaf (ABUTH); conditions: ABUTH, 21 DAA

SMILES	pest or weed control at 50 g/ha ([1]; Trial 1, Trt 9, B2 0 g ae/ha, Saflufenacil 50 g ai or ae/ha alone)	pest or weed control at 75 g/ha ([1]; Trial 1, Trt 13, B2 0 g ae/ha, Saflufenacil 75 g ai or ae/ha alone)	plant injury at 50 g/ha ([2]; Trial 1 Trt 9, B2 0 g ae/ha, Saflufenacil 50 g ai or ae/ha alone)	plant injury at 75 g/ha ([2]; Trial 1 Trt 13, B2 0 g ae/ha, Saflufenacil 75 g ai or ae/ha alone)	pest or weed control at 25 g/ha ([3]; Abutilon theophrasti, post-emergence, 504 h, Trial 1, Trt 5, B2 0 g ae/ha, Saflufenacil 25 g ai or ae/ha alone)	pest or weed control at 50 g/ha ([3]; Abutilon theophrasti, post-emergence, 504 h, Trial 1, Trt 9, B2 0 g ae/ha, Saflufenacil 50 g ai or ae/ha alone)	pest or weed control at 75 g/ha ([3]; Abutilon theophrasti, post-emergence, 504 h, Trial 1, Trt 13, B2 0 g ae/ha, Saflufenacil 75 g ai or ae/ha alone)	pest or weed control at 140 g/ha ([1]; Trial Bridge 3, Sulfentrazone 140 g ai/ha alone (B2 rate 0))	pest or weed control at 210 g/ha ([1]; Trial Bridge 3, Sulfentrazone 210 g ai/ha alone (B2 rate 0))	pest or weed control at 420 g/ha ([1]; Trial Bridge 3, Sulfentrazone 420 g ai/ha alone (B2 rate 0))	pest or weed control at 210 g/ha ([1]; Trial 1, Trt 21, B2 0 g ae/ha, Sulfentrazone 210 g ai or ae/ha alone)	pest or weed control at 420 g/ha ([1]; Trial 1, Trt 25, B2 0 g ae/ha, Sulfentrazone 420 g ai or ae/ha alone)	plant injury at 420 g/ha ([2]; Trial 1 Trt 25, B2 0 g ae/ha, Sulfentrazone 420 g ai or ae/ha alone)	plant injury at 140 g/ha ([2]; Sulfentrazone 140 g ai or ae/ha alone (B2 rate 0), Trial Bridge 3)	plant injury at 210 g/ha ([2]; Sulfentrazone 210 g ai or ae/ha alone (B2 rate 0), Trial Bridge 3)	% Control ([3]; Sulfentrazone 210 g ai/ha alone (compound rate 0 g ae/ha), Trial Bridge 3)	pest or weed control at 140 g/ha ([3]; Abutilon theophrasti, post-emergence, 504 h, Sulfentrazone 140 g ai/ha alone (compound rate 0 g ae/ha), Trial Bridge 3)	pest or weed control at 210 g/ha ([3]; Abutilon theophrasti, post-emergence, 504 h, Sulfentrazone 210 g ai/ha alone (compound rate 0 g ae/ha), Trial Bridge 3)	pest or weed control at 216 g/ha ([3]; Abutilon theophrasti, post-emergence, 504 h, Sulfentrazone 216 g ai/ha alone (compound rate 0 g ae/ha), Trial Bridge 3)	pest or weed control at 420 g/ha ([3]; Abutilon theophrasti, post-emergence, 504 h, Trial 1, Trt 25, B2 0 g ae/ha, Sulfentrazone 420 g ai or ae/ha alone)
CC(C)N(C)S(=O)(=O)NC(=O)c1cc(-n2c(=O)cc(C(F)(F)F)n(C)c2=O)c(F)cc1Cl [Saflufenacil, reference compound]	95%	98%	50%	45%	100%	100%	100%	–	–	–	–	–	–	–	–	–	–	–	–	–
Cc1nn(-c2cc(NS(C)(=O)=O)c(Cl)cc2Cl)c(=O)n1C(F)F [Sulfentrazone, N-[2,4-dichloro-5-[4-(difluoromethyl)-4,5-dihydro-3-methyl-5-oxo-1H-1,2,4-triazol-1-yl]phenyl]-methane-sulfonamide, reference compound]	–	–	–	–	–	–	–	99%	88%	100%	100%	99%	25%	40%	40%	100%	98%	100%	8%	80%
